The values that follow are results of earlier work, collected in patent US20080003278A1, “Food products and dietary supplements for improving mental performance” (priority 2006, published 2008).

The data set concerns epileptic seizures. The note with it: thirty-one patients participating in the study.

For `CCOC(=O)C1=C[C@]2(CC)CCCN3CCc4c(n1c1ccccc41)[C@@H]32` [vinpocetine], the “patients in whom the frequency of epileptic seizures was reduced and, in some cases, seizures completely eliminated” value was “twenty of the thirty-one”.
